US6630191B1, “Aspartyl dipeptide ester derivatives and sweeteners” (Ajinomoto Co., Inc., priority 1998, dated 2003)
Marks after values point to notes of the source that are not given here.

Key:
[1] = Sensory evaluation of sweetening potency relative to sugar (4% sucrose aqueous solution); conditions: for Sweetening Potency / Sweetening Potency, compensated value as optical isomer: Relative to sweetening potency of a 4% sucrose aqueous solution; for Sweetening potency (relative to sugar): sensory evaluation; for Sweetening Potency, compensated value as optical isomer: compensated value as optical isomer (DL-homophenylalanine derivatives)
Description: For example, the sweetening potency of N-[N-[3-(3-hydroxy-4-methoxyphenyl)propyl]-L-α-aspartyl]-L-(α-methyl)phenylalanine 1-methyl ester was approximately 18,000 times (relative to sugar), that of N-[N-[3-(3-methoxy-4-hydroxyphenyl)propyl]-L-α-aspartyl]-L-(α-methy)phenylalanine 1-methyl ester was approximately 18,000 times (relative to sugar), that of N-[N-[3-(3-hydroxy-4-methoxyphenyl)propyl]-L-α-aspartyl]-3-cyclohexyl-L-alanine 1-methyl ester was approximately 25,000 times (relative to sugar), that of N-[N-[3-(3-methoxy-4-hydroxyphenyl)propyl]-L-α-aspartyl]-3-cyclohexyl-L-alanine 1-methyl ester was approximately 25,000 times (relative to sugar), that of N-[N-[3-(3-methyl-4-hydroxyphenyl)propyl]-L-(α-aspartyl]-3-cyclohexyl-L-alanine 1-methyl ester was approximately 40,000 times (relative to sugar).
With respect to the aspartyl dipeptide derivatives (represented by the following general formula (5)) formed, the structures and the results of the sensory evaluation are shown in Table 1. [drawing 4]

[2] = reported in WO 94/11391; cited from earlier work

Row | SMILES | Sweetening Potency [1] | Sweetening potency (relative to sugar) [1] | further results
1 | COC(=O)[C@](C)(Cc1ccccc1)NC(=O)[C@H](CC(=O)O)NCCCc1ccc(O)c(OC)c1 [Compound 2, N-(N-(3-(3-Methoxy-4-hydroxyphenyl)propyl]-L-α-aspartyl]-L-(α-methyl)phenylalanine 1-Methyl Ester] | 18000 | 18,000 times | Sweetening potency (relative to sugar) ([1]; listed as N-[N-[3-(3-methoxy-4-hydroxyphenyl)propyl]-L-α-aspartyl]-L-(α-methy)phenylalanin): approximately 18,000 times
2 | COC(=O)[C@](C)(Cc1ccccc1)NC(=O)[C@H](CC(=O)O)NCCCc1ccc(OC)c(O)c1 [Compound 1, N-[N-[3-(3-Hydroxy-4-methoxyphenyl)propyl]-L-α-aspartyl]-L-(α-methyl)phenylalanine 1-Methyl Ester] | 18000 | 18,000 times | Sweetening potency (relative to sugar) ([1]; listed as N-[N-[3-(3-hydroxy-4-methoxyphenyl)propyl]-L-α-aspartyl]-L-(α-methyl)phenylalani): approximately 18,000 times
3 | COC(=O)C(CCc1ccccc1)NC(=O)[C@H](CC(=O)O)NCCCc1ccc(OC)c(O)c1 (mixture of isomers) [Compound 7, N-[N-[3-(3-Hydroxy-4-methoxyphenyl)propyl]-L-α-aspartyl]-DL-homophenylalanine 1-Methyl Ester] |  | 1,000 times | Sweetening Potency, compensated value as optical isomer [1]: 2000^2)
4 | COC(=O)C(CCc1ccccc1)NC(=O)[C@H](CC(=O)O)NCCCc1ccc(O)c(OC)c1 (mixture of isomers) [Compound 8, N-[N-[3-(3-Methoxy-4-hydroxyphenyl)propyl]-L-α-aspartyl]-DL-homophenylalanine 1-Methyl Ester] |  | 1,200 times | Sweetening Potency, compensated value as optical isomer [1]: 2400^2)
5 | COC(=O)[C@H](Cc1ccccc1)NC(=O)[C@H](CC(=O)O)NCCC(C)(C)C [N-[N-(3,3-dimethylbutyl)-L-α--aspartyl]-L-phenylalanine 1-methyl ester] |  |  | Sweetening potency, times that of sugar [2]: 10,000 times
6 | COC(=O)[C@H](CC1CCCCC1)NC(=O)[C@H](CC(=O)O)NCCCc1ccc(OC)c(O)c1 [Compound 3, N-[N-[3-(3-Hydroxy-4-methoxyphenyl)propyl]-L-α-aspartyl]-3-cyclohexyl-L-alanine 1-Methyl Ester] | 25000 | 25,000 times | Sweetening potency (relative to sugar) ([1]; listed as N-[N-[3-(3-hydroxy-4-methoxyphenyl)propyl]-L-α-aspartyl]-3-cyclohexyl-L-alanine): approximately 25,000 times
7 | COC(=O)[C@H](CC1CCCCC1)NC(=O)[C@H](CC(=O)O)NCCCc1ccc(O)c(C)c1 [Compound 12, N-[N-(3-(3-Methyl-4-hydroxyphenyl)propyl]-L-α-aspartyl]-3-cyclohexyl-L-anine 1-Methyl Ester] | 40000 | 40,000 times | Sweetening potency (relative to sugar) ([1]; listed as N-[N-[3-(3-methyl-4-hydroxyphenyl)propyl]-L-(α-aspartyl]-3-cyclohexyl-L-alanine): approximately 40,000 times
8 | COC(=O)C(NC(=O)C(CC(=O)O)NCCCc1ccc(O)c(OC)c1)c1ccccc1 [Compound 6, N-[N-[3-(3-Methoxy-4-hydroxyphenyl)propyl]-L-α-aspartyl]-L-phenylglycin 1-Methyl Ester] | 700 | 700 times | 
9 | COC(=O)[C@H](Cc1ccccc1)NC(=O)[C@H](CC(=O)O)NCCCc1ccc(O)c(OC)c1 [N-[N-[3-(3-methoxy-4-hydroxyphenyl)propyl]-L-α-aspartyl]-L-phenylalanine 1-methyl ester] |  |  | Sweetening potency, times that of sugar [2]: 2,500 times
10 | COC(=O)C(Cc1ccc(O)cc1)NC(=O)C(CC(=O)O)NCCC(C)(C)C [N-[N-(3,3-dimethylbutyl)-L-α-aspartyll-L-tyrosine 1-methyl ester] |  |  | Sweetening potency, times that of sugar [2]: 4,000 times
11 | Cc1ccc(CCCN[C@@H](CC(=O)O)C(=O)N[C@@H](CC2CCCCC2)C(=O)O)c(O)c1 [Compound 13] | 25000 | 25,000 times | 
12 | CCCOC(=O)[C@@H](C)NC(=O)[C@H](CC(=O)O)NCCCc1ccc(OC)c(O)c1 [Compound 9, N-[N-[3-(3-Hydroxy-4-methoxyphenyl)propyl]-L-α-aspartyl]-D-alanine 1-n-Propyl Ester] | 800 | 800 times | 
13 | COC(=O)C(C)(Cc1ccccc1)NC(=O)C(CC(=O)O)NCCCc1ccc(OC)cc1O [Compound 11, N-[N-[3-(2-Hydroxy-4-methoxyphenyl)propyl]-L-α-aspartyl]-L-(α-methyl) Phenylalanine 1-Methyl Ester] | 15000 | 15,000 times | 
14 | COC(=O)[C@H](CC1CCCCC1)NC(=O)[C@H](CC(=O)O)NCCCc1ccc(O)c(OC)c1 [Compound 4, N-[N-(3-(3-Methoxy-4-hydroxyphenyl)propyl]-L-α-aspartyl]-3-cyclohexyl-L-alanine 1-Methyl Ester] | 25000 | 25,000 times | Sweetening potency (relative to sugar) ([1]; listed as N-[N-[3-(3-methoxy-4-hydroxyphenyl)propyl]-L-α-aspartyl]-3-cyclohexyl-L-alanine): approximately 25,000 times
15 | COC(=O)[C@H](Cc1ccccc1)NC(=O)[C@H](CC(=O)O)NCCCc1ccccc1 [N-[N-(3-phenylpropyl)-L-α-aspartyl]-L-phenylalanine 1-methyl ester] |  |  | Sweetening potency, times that of sugar [2]: 1,500 times
16 | COC(=O)C(NC(=O)C(CC(=O)O)NCCCc1ccc(OC)c(O)c1)c1ccccc1 [Compound 5, N-[N-[3-(3-Hydroxy-4-methoxyphenyl)propyl]-L-α-aspartyl]-L-phenylglycin 1-Methyl Ester] | 1600 | 1,600 times | 
17 | CCCOC(=O)[C@@H](C)NC(=O)[C@H](CC(=O)O)NCCCc1ccc(O)c(OC)c1 [Compound 10, N-[-[3-(3-Methoxy-4-hydroxyphenyl)propyl]-α-aspartyl]-D-alanine 1-n-Propyl Ester] | 600 | 600 times | 
